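Tested at 5 concentrations; 48 h exposure; 96-well plates; endpoints linearly interpolated, else capped at highest concentration. At the GI50, growth is halved.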 Active and inactive are the calls of the source. Cut-off read from the data, not from the text of the source: active = GI50 up to about 1.1 µM and inactive = higher.
Columns and labels:
Assay in all cases: NCI-60 cell line screen, 48 h
MDA-MB-435 = tested on: MDA-MB-435
SNB-75 = tested on: SNB-75
ACHN = tested on: ACHN
OVCAR-8 = tested on: OVCAR-8
SK-OV-3 = tested on: SK-OV-3
NCI/ADR-RES = tested on: NCI/ADR-RES
CCRF-CEM = tested on: CCRF-CEM
HCC 2998 = tested on: HCC 2998
SF-295 = tested on: SF-295
MCF7 = tested on: MCF7
T47D = tested on: T47D
HCT-15 = tested on: HCT-15
SK-MEL-5 = tested on: SK-MEL-5
NCI-H23 = tested on: NCI-H23
HT-29 = tested on: HT-29
NCI-H460 = tested on: NCI-H460
OVCAR-4 = tested on: OVCAR-4
SK-MEL-2 = tested on: SK-MEL-2
MDA-MB-231 = tested on: MDA-MB-231
HOP-62 = tested on: HOP-62
M14 = tested on: M14
HCT-116 = tested on: HCT-116
SF-539 = tested on: SF-539
LOX IMVI = tested on: LOX IMVI
SR = tested on: SR
K562 = tested on: K562
SW-620 = tested on: SW-620
A498 = tested on: A498
PC-3 = tested on: PC-3
786-0 = tested on: 786-0
TK-10 = tested on: TK-10
HOP-92 = tested on: HOP-92
IGROV-1 = tested on: IGROV-1
CAKI-1 = tested on: CAKI-1
SNB-19 = tested on: SNB-19
KM12 = tested on: KM12
U-251 = tested on: U-251
DU-145 = tested on: DU-145
NCI-H226 = tested on: NCI-H226
EKVX = tested on: EKVX
RXF 393 = tested on: RXF 393
UO-31 = tested on: UO-31
BT-549 = tested on: BT-549
Hs-578T = tested on: Hs-578T
SK-MEL-28 = tested on: SK-MEL-28
HL-60 = tested on: HL-60
SF-268 = tested on: SF-268
RPMI-8226 = tested on: RPMI-8226
UACC-257 = tested on: UACC-257
COLO 205 = tested on: COLO 205
UACC-62 = tested on: UACC-62
SN12C = tested on: SN12C
MDA-N = tested on: MDA-N
MOLT-4 = tested on: MOLT-4
Malme-3M = tested on: Malme-3M
NCI-H522 = tested on: NCI-H522
OVCAR-3 = tested on: OVCAR-3
A549 = tested on: A549
OVCAR-5 = tested on: OVCAR-5

For `O=C1NC(c2ccc3ccccc3c2)Nc2ccccc21` (stereo unspecified), the GI50 (MDA-MB-435) was 3.12 µM (inactive), the GI50 (SNB-75) was 75.7 µM (inactive) and the GI50 (ACHN) was 48.1 µM (inactive). For the same compound, the GI50 (OVCAR-8) was 33.4 µM (inactive), the GI50 (SK-OV-3) was 53.5 µM (inactive) and the GI50 (NCI/ADR-RES) was 62.4 µM (inactive). The GI50 (CCRF-CEM) was 30.6 µM (inactive), the GI50 (HCC 2998) was 51.9 µM (inactive) and the GI50 (SF-295) was 35.3 µM (inactive). The GI50 (MCF7) was 46.1 µM (inactive), the GI50 (T47D) was 71.4 µM (inactive) and the GI50 (HCT-15) was 14.8 µM. For the same compound, the GI50 (SK-MEL-5) was 20 µM (inactive), the GI50 (NCI-H23) was 24.5 µM (inactive) and the GI50 (HT-29) was 24.8 µM (inactive). For the same compound, the GI50 (NCI-H460) was 25.3 µM (inactive), the GI50 (OVCAR-4) was 58.5 µM (inactive) and the GI50 (SK-MEL-2) was 35.9 µM (inactive). The GI50 (MDA-MB-231) was > 100 µM (inactive), the GI50 (HOP-62) was 41 µM (inactive) and the GI50 (M14) was 35.9 µM (inactive). The GI50 (HCT-116) was 33.1 µM (inactive), the GI50 (SF-539) was 20.7 µM (inactive) and the GI50 (LOX IMVI) was 58.7 µM (inactive). For the same compound, the GI50 (SR) was 5.83 µM (inactive), the GI50 (K562) was 2.54 µM (inactive) and the GI50 (SW-620) was 43.8 µM (inactive). The GI50 (A498) was 56 µM (inactive), the GI50 (PC-3) was 27.9 µM (inactive) and the GI50 (786-0) was 45.7 µM (inactive). For the same compound, the GI50 (TK-10) was > 100 µM (inactive), the GI50 (HOP-92) was 36.7 µM (inactive) and the GI50 (IGROV-1) was 23.6 µM (inactive). The GI50 (CAKI-1) was 59.7 µM (inactive), the GI50 (SNB-19) was 51.8 µM (inactive) and the GI50 (KM12) was 21.1 µM (inactive). For the same compound, the GI50 (U-251) was > 100 µM (inactive), the GI50 (DU-145) was 49.5 µM (inactive) and the GI50 (NCI-H226) was 32.1 µM (inactive). The GI50 (EKVX) was 45.6 µM (inactive), the GI50 (RXF 393) was 51.9 µM (inactive) and the GI50 (UO-31) was 64.9 µM (inactive). The GI50 (BT-549) was 5.26 µM (inactive), the GI50 (Hs-578T) was 57.4 µM (inactive) and the GI50 (SK-MEL-28) was > 100 µM (inactive). For the same compound, the GI50 (HL-60) was 15.2 µM (inactive), the GI50 (SF-268) was > 100 µM (inactive) and the GI50 (RPMI-8226) was 29.9 µM (inactive). For the same compound, the GI50 (UACC-257) was 57.9 µM (inactive), the GI50 (COLO 205) was 26.3 µM (inactive) and the GI50 (UACC-62) was 21.9 µM (inactive).

For `CN(C)c1ccc(-c2c(C#N)c(S)n(NS(=O)(=O)c3ccccc3)c(=O)c2C#N)cc1`, the GI50 (MDA-MB-435) was 21.5 µM (inactive), the GI50 (SNB-75) was 25.4 µM (inactive) and the GI50 (ACHN) was 26.8 µM (inactive). For the same compound, the GI50 (SN12C) was 20.2 µM (inactive), the GI50 (OVCAR-8) was 16.6 µM (inactive) and the GI50 (MDA-N) was 25 µM (inactive). The GI50 (SK-OV-3) was 59.6 µM (inactive), the GI50 (NCI/ADR-RES) was 19.3 µM (inactive) and the GI50 (CCRF-CEM) was 5.93 µM (inactive). The GI50 (MOLT-4) was 16.6 µM (inactive), the GI50 (HCC 2998) was 70.8 µM (inactive) and the GI50 (SF-295) was 31 µM (inactive). For the same compound, the GI50 (MCF7) was 24.2 µM (inactive), the GI50 (Malme-3M) was 26.5 µM (inactive) and the GI50 (HCT-15) was 20.5 µM. The GI50 (SK-MEL-5) was 19.8 µM (inactive), the GI50 (NCI-H23) was 30.8 µM (inactive) and the GI50 (OVCAR-4) was 25.6 µM (inactive). The GI50 (SK-MEL-2) was 35.9 µM (inactive), the GI50 (MDA-MB-231) was 22.3 µM (inactive) and the GI50 (NCI-H522) was 14.7 µM (inactive). For the same compound, the GI50 (OVCAR-3) was 36.6 µM (inactive), the GI50 (M14) was 27.6 µM (inactive) and the GI50 (HCT-116) was 27.2 µM (inactive). The GI50 (SF-539) was 18.8 µM (inactive), the GI50 (A549) was 37.9 µM (inactive) and the GI50 (LOX IMVI) was 22.1 µM (inactive). The GI50 (SR) was 10 µM (inactive), the GI50 (K562) was 30.7 µM (inactive) and the GI50 (SW-620) was 38.9 µM (inactive). For the same compound, the GI50 (A498) was 22.3 µM (inactive), the GI50 (PC-3) was 21.1 µM (inactive) and the GI50 (786-0) was 17.1 µM (inactive). The GI50 (TK-10) was 19 µM (inactive), the GI50 (HOP-92) was 25 µM (inactive) and the GI50 (IGROV-1) was 15.8 µM (inactive). For the same compound, the GI50 (CAKI-1) was 23.8 µM (inactive), the GI50 (SNB-19) was 48.1 µM (inactive) and the GI50 (KM12) was 16.2 µM (inactive). The GI50 (U-251) was 24.1 µM (inactive), the GI50 (DU-145) was 63.5 µM (inactive) and the GI50 (EKVX) was 32.6 µM (inactive). The GI50 (OVCAR-5) was 55.6 µM (inactive), the GI50 (RXF 393) was 20.4 µM (inactive) and the GI50 (UO-31) was 25.5 µM (inactive). For the same compound, the GI50 (BT-549) was 21.1 µM (inactive), the GI50 (SK-MEL-28) was 36.1 µM (inactive) and the GI50 (HL-60) was 15.7 µM (inactive). For the same compound, the GI50 (RPMI-8226) was 13.9 µM (inactive), the GI50 (UACC-257) was 45.8 µM (inactive) and the GI50 (COLO 205) was 38.5 µM (inactive). The GI50 (UACC-62) was 20.5 µM (inactive).

`CC(=O)OC(CN1CCN(c2ccccn2)CC1)Cn1sc2nc(C)cc(C)c2c1=O` (stereo unspecified) was tested, and the GI50 (MDA-MB-435) was 16.9 µM (inactive), the GI50 (SNB-75) was 16 µM (inactive) and the GI50 (ACHN) was 16.4 µM (inactive). The GI50 (SN12C) was 18.9 µM (inactive), the GI50 (OVCAR-8) was 28.7 µM (inactive) and the GI50 (SK-OV-3) was 17.9 µM (inactive). For the same compound, the GI50 (NCI/ADR-RES) was 27 µM (inactive), the GI50 (CCRF-CEM) was 5.78 µM (inactive) and the GI50 (MOLT-4) was 5.58 µM (inactive). The GI50 (HCC 2998) was 19.5 µM (inactive), the GI50 (SF-295) was > 100 µM (inactive) and the GI50 (MCF7) was 17.9 µM (inactive). For the same compound, the GI50 (Malme-3M) was 18.6 µM (inactive), the GI50 (T47D) was 28 µM (inactive) and the GI50 (HCT-15) was 20 µM. For the same compound, the GI50 (SK-MEL-5) was 13.2 µM (inactive), the GI50 (NCI-H23) was 20.8 µM (inactive) and the GI50 (HT-29) was 18.6 µM (inactive). The GI50 (NCI-H460) was 18.5 µM (inactive), the GI50 (OVCAR-4) was 22.4 µM (inactive) and the GI50 (SK-MEL-2) was 18.3 µM (inactive). The GI50 (MDA-MB-231) was 17.9 µM (inactive), the GI50 (HOP-62) was 28.8 µM (inactive) and the GI50 (NCI-H522) was 7.03 µM (inactive). For the same compound, the GI50 (OVCAR-3) was 21.2 µM (inactive), the GI50 (M14) was 16.5 µM (inactive) and the GI50 (HCT-116) was 16.3 µM (inactive). The GI50 (SF-539) was 14.6 µM (inactive), the GI50 (A549) was 20.6 µM (inactive) and the GI50 (LOX IMVI) was 21.3 µM (inactive). For the same compound, the GI50 (SR) was 4.61 µM (inactive), the GI50 (K562) was 32.7 µM (inactive) and the GI50 (SW-620) was 26.4 µM (inactive). The GI50 (A498) was 18.1 µM (inactive), the GI50 (PC-3) was 17.5 µM (inactive) and the GI50 (786-0) was 14.9 µM (inactive). For the same compound, the GI50 (TK-10) was 17.3 µM (inactive), the GI50 (HOP-92) was 48.3 µM (inactive) and the GI50 (IGROV-1) was 18.2 µM (inactive). For the same compound, the GI50 (CAKI-1) was 18.9 µM (inactive), the GI50 (SNB-19) was > 100 µM (inactive) and the GI50 (KM12) was 21.4 µM (inactive). The GI50 (U-251) was 18.1 µM (inactive), the GI50 (DU-145) was 19 µM (inactive) and the GI50 (NCI-H226) was > 100 µM (inactive). The GI50 (EKVX) was 17.3 µM (inactive), the GI50 (OVCAR-5) was 17.5 µM (inactive) and the GI50 (RXF 393) was 20.2 µM (inactive). For the same compound, the GI50 (UO-31) was 16.3 µM (inactive), the GI50 (BT-549) was 18.6 µM (inactive) and the GI50 (Hs-578T) was 20.7 µM (inactive). For the same compound, the GI50 (SK-MEL-28) was 20 µM (inactive), the GI50 (HL-60) was 16.8 µM (inactive) and the GI50 (SF-268) was 17.3 µM (inactive). The GI50 (RPMI-8226) was 5.12 µM (inactive), the GI50 (UACC-257) was 17.7 µM (inactive) and the GI50 (COLO 205) was 15.8 µM (inactive). The GI50 (UACC-62) was 16.4 µM (inactive).

Reference: ChEMBL document CHEMBL1201862, “PubChem BioAssay data set” (2004)
